In the NIST ThermoML archive (doi:10.1016/j.jct.2017.07.014):

Columns and labels:
[1] = molar heat capacity at constant pressure; xn = mol fraction of the nth substance listed; details: 102.6 kPa, Liquid, Large sample (1 g) DSC, x1 = 0.107
[2] = refractive index (other wavelength) (dimensionless); xn = mol fraction of the nth substance listed; details: 108 kPa, Liquid, Wavelength=632.8 nm, minimum deviation method

CCCCn1cc[n+](C)c1.F[P-](F)(F)(F)(F)F [1-butyl-3-methylimidazolium hexafluorophosphate] + CCO
[1]
Details	molar heat capacity at constant pressure [J/K/mol]
314.31 K	176.72
314.64 K	177.08
314.97 K	177.44
315.29 K	177.86
315.62 K	178.15
315.94 K	178.8
316.27 K	179.08
316.59 K	179.58
316.92 K	179.87
317.24 K	180.44
317.57 K	180.87
317.89 K	181.23
318.22 K	181.8
318.55 K	182.3
318.87 K	182.66
319.19 K	183.3
319.52 K	183.87
319.85 K	184.38
320.17 K	184.88
320.5 K	185.38
320.82 K	186.02
321.15 K	186.45
321.47 K	187.09
321.8 K	187.95
322.12 K	188.6
322.45 K	189.38
322.77 K	190.17
323.1 K	190.89
323.42 K	191.96
323.75 K	192.96
324.07 K	194.61
324.4 K	195.89
324.73 K	198.26
325.05 K	201.76
325.38 K	205.34
325.7 K	210.28
326.03 K	181.08
326.35 K	178.08
326.68 K	176.79
327 K	175.93
327.33 K	175.36
327.65 K	174.93
327.98 K	174.57
328.31 K	174.36
328.63 K	174.29
328.96 K	174.07
329.28 K	173.93
329.61 K	173.79
329.93 K	173.72
330.26 K	173.64
330.58 K	173.57
330.91 K	173.5
331.23 K	173.43
331.56 K	173.43
331.88 K	173.43
332.21 K	173.43
332.53 K	173.29
332.86 K	173.43
333.19 K	173.43
333.51 K	173.43
333.84 K	173.36
334.16 K	173.5
334.49 K	173.57
334.81 K	173.72
335.14 K	173.86
335.46 K	174.22
335.78 K	173.72
336.09 K	173.29
336.38 K	173.07
336.76 K	172.93
337.09 K	172.79
337.41 K	173.5
337.74 K	174.07
338.06 K	174.07
338.39 K	174.14
338.72 K	174.43
339.05 K	174.22
339.35 K	174.07
339.69 K	174.72
340.04 K	174.72
340.35 K	175.07
340.66 K	175.58
340.99 K	175.29
341.32 K	175.07
341.64 K	175
341.98 K	175.29
342.3 K	174.93
342.6 K	175.58
342.93 K	175.43
343.26 K	175.79
343.6 K	175.65
343.91 K	175.72
344.24 K	175.72
344.56 K	175.79
344.9 K	175.86
345.21 K	176.08
345.55 K	175.93
345.87 K	175.86
346.19 K	176.15
346.54 K	176.65
346.86 K	176.43
347.17 K	177.08
347.51 K	176.72
347.82 K	176.65
348.15 K	176.79

[2]
Details	refractive index
315.21 K, x1 = 1	1.4038
317.26 K, x1 = 1	1.4032
319.23 K, x1 = 1	1.4027
320.24 K, x1 = 0.3	1.3841
320.24 K, x1 = 0.4	1.3889
320.24 K, x1 = 0.901	1.4008
320.25 K, x1 = 0.6	1.3951
320.25 K, x1 = 0.7	1.3973
320.26 K, x1 = 0.801	1.3992
320.27 K, x1 = 0.5	1.3923
321.27 K, x1 = 0.3	1.3838
321.27 K, x1 = 0.801	1.3989
321.27 K, x1 = 0.901	1.4005
321.28 K, x1 = 0.7	1.3971
321.29 K, x1 = 0.4	1.3886
321.29 K, x1 = 0.6	1.3949
321.35 K, x1 = 0.5	1.392
321.47 K, x1 = 1	1.4021
322.24 K, x1 = 0.3	1.3835
322.27 K, x1 = 0.7	1.3968
322.27 K, x1 = 0.901	1.4002
322.29 K, x1 = 0.4	1.3884
322.29 K, x1 = 0.5	1.3918
322.29 K, x1 = 0.6	1.3945
322.29 K, x1 = 0.801	1.3987
323.24 K, x1 = 0.901	1.4
323.25 K, x1 = 0.3	1.3832
323.27 K, x1 = 0.5	1.3915
323.28 K, x1 = 0.801	1.3984
323.3 K, x1 = 0.4	1.388
323.3 K, x1 = 0.6	1.3943
323.3 K, x1 = 0.7	1.3965
323.47 K, x1 = 1	1.4016
323.58 K, x1 = 0.2	1.3759
324.23 K, x1 = 0.801	1.3981
324.23 K, x1 = 0.901	1.3997
324.24 K, x1 = 0.7	1.3962
324.26 K, x1 = 0.3	1.3828
324.28 K, x1 = 0.4	1.3877
324.28 K, x1 = 0.6	1.394
324.3 K, x1 = 0.5	1.3912
324.56 K, x1 = 0.2	1.3756
325.26 K, x1 = 0.801	1.3979
325.28 K, x1 = 0.4	1.3874
325.28 K, x1 = 0.6	1.3938
325.31 K, x1 = 0.3	1.3825
325.31 K, x1 = 0.901	1.3994
325.32 K, x1 = 0.7	1.396
325.34 K, x1 = 0.5	1.3909
325.4 K, x1 = 1	1.4011
325.42 K, x1 = 0.1	1.3647
325.63 K, x1 = 0.2	1.3753
326.48 K, x1 = 0.4	1.387
326.51 K, x1 = 0.3	1.3822
326.58 K, x1 = 0.801	1.3975
326.59 K, x1 = 0.901	1.3991
326.6 K, x1 = 0.5	1.3905
326.6 K, x1 = 0.6	1.3934
326.61 K, x1 = 0.7	1.3956
326.64 K, x1 = 0.1	1.3643
327.05 K, x1 = 0.2	1.3748
327.64 K, x1 = 0.4	1.3867
327.65 K, x1 = 0.5	1.3902
327.67 K, x1 = 0.6	1.3931
327.73 K, x1 = 0.7	1.3953
327.75 K, x1 = 0.3	1.3817
327.86 K, x1 = 0.1	1.3639
327.91 K, x1 = 0.901	1.3987
327.93 K, x1 = 0.801	1.3972
328.27 K, x1 = 0.2	1.3744
328.91 K, x1 = 0.1	1.3636
329.44 K, x1 = 0.1	1.3634
